From paper PMC9558423 (Molecular nutrition & food research, 2020)
Like-named read-outs stand apart in the source and are kept apart here. Marks after values point to notes of the source that are not given here.

Assays:
[1] = for Cmax (nmol excreted) / Tmax: urine; for Cmax (nmol excreted): mean ± SD; for Qualitative Tmax (urine collection with greatest excretion): 12h urine collections, np = no peak; for Tmax: female, Sprague Dawley, rat, po; for Time of maximal urinary excretion after dosing: as stated in text/figure legend, doses not separated
[2] = for Qualitative Tmax (blood collection with greatest plasma level): blood every 6h, np = no peak; for Cmax / AUC / Tmax: plasma; for Plasma AUC: plasma 0–48h, trapezoidal
[3] = female, Sprague Dawley, rat, po, 350 mg/kg
[4] = female, Sprague Dawley, rat, po, 1000 mg/kg
[5] = High dose (1000 mg/kg bw), mean ± SD
[6] = Medium dose (350 mg/kg bw), mean ± SD

| Compound | Cmax (nmol excreted) ([1]; High dose (1000 mg/kg bw)) | Qualitative Tmax (urine collection with greatest excretion) ([1]; Low dose (75 mg/kg bw)) | Cmax (nmol excreted) ([1]; Low dose (75 mg/kg bw)) | Cmax (nmol excreted) ([1]; Medium dose (350 mg/kg bw)) | Qualitative Tmax (urine collection with greatest excretion) ([1]; High dose (1000 mg/kg bw)) | Qualitative Tmax (urine collection with greatest excretion) ([1]; Medium dose (350 mg/kg bw)) | also measured |
| --- | --- | --- | --- | --- | --- | --- | --- |
| O=C(O)/C=C/c1ccc(O)c(O)c1 [Caffeic acid, caffeic acid] | 3.97 ± 1.38 nmol excreted | np | np | 3.18 ± 1.64 nmol excreted |  |  | Tmax ([1]; 350 mg/kg): 0 to 12 h; Tmax ([1]; 1000 mg/kg): 0 to 12 h |
| O=C(O)CNC(=O)c1cccc(O)c1 [3-OH-hippuric acid, 3-hydroxyhippuric acid] | 26.3 ± 7.6 nmol excreted | np | np | 31.8 ± 8.1 nmol excreted |  |  | Tmax ([1]; 350 mg/kg): 12 to 24 h; Tmax ([1]; 1000 mg/kg): 12 to 24 h |
| O=C(O)CNC(=O)c1ccccc1 [Hippuric acid, hippuric acid] | 598 ± 146 nmol excreted | np | np | 700 ± 78 nmol excreted |  |  | Qualitative Tmax (blood collection with greatest plasma level) ([2]; Low dose (75 mg/kg bw)): np; Cmax ([2]; Low dose (75 mg/kg bw), mean ± SD): np; AUC ([2]; female, Sprague Dawley, rat, po, 75 mg/kg): 25.8 ± 3.08 µM·h; AUC [2, 3]: 47.7 ± 5.13 µM·h; Cmax [2, 3]: 1.54 ± 0.51 µM; Tmax [2, 3]: 12 h; AUC [2, 4]: 74.3 ± 7.54 µM·h; Cmax [2, 4]: 2.06 ± 0.806 µM; Tmax [2, 4]: 24 to 36 h; Time of maximal urinary excretion after dosing [1]: 12 to 24 h; Tmax ([1]; 350 mg/kg): 12 to 24 h; Tmax ([1]; 1000 mg/kg): 12 to 24 h; Amount excreted in urine, medium vs high dose ([1]; medium (350) vs high (1000 mg/kg bw) dose): no difference |
| COc1cc(-c2[o+]c3cc(O)cc(O)c3cc2O[C@@H]2O[C@H](CO)[C@@H](O)[C@H](O)[C@H]2O)cc(OC)c1O [Malvidin Glucoside, malvidin-3-O-glucoside] | 10.7 ± 0.9 nmol excreted | np | np | 6.57 ± 0.57 nmol excreted | 0 to 12 h | 0 to 12 h |  |
| OC[C@H]1O[C@@H](Oc2cc3c(O)cc(O)cc3[o+]c2-c2cc(O)c(O)c(O)c2)[C@H](O)[C@@H](O)[C@@H]1O [Delphinidin Glucoside, delphindin-3-O-glucoside] | 0.94 ± 0.22 nmol excreted | np | np | 0.81 ± 0.14 nmol excreted | 0 to 24 h | 0 to 24 h |  |
| O=C(O)CCc1cccc(O)c1 [3-OH-PPA, 3-hydroxyphenylpropionic acid] | 275 ± 34 nmol excreted | 0 to 12 h | 25.4 ± 6.9 nmol excreted | 177 ± 24 nmol excreted | 12 to 24 h | 0 to 12 h | Qualitative Tmax (blood collection with greatest plasma level) ([2]; High dose (1000 mg/kg bw)): 12 h; Plasma AUC [2, 5]: 8.00 ± 2.22 ^x uM*h; Cmax [2, 5]: 0.507 ± 0.107 µM; Qualitative Tmax (blood collection with greatest plasma level) ([2]; Medium dose (350 mg/kg bw)): 12 h; Plasma AUC [2, 6]: 2.46 ± 0.95 ^w uM*h; Cmax [2, 6]: 0.161 ± 0.092 µM |
| COc1ccc(CCC(=O)O)cc1O [3-OH-4-OMe-PPA, 3-hydroxy-4-methoxyphenylpropionic acid] | 2.48 ± 2.69 nmol excreted | 0 to 12 h | 0.82 ± 0.58 nmol excreted | 2.69 ± 1.83 nmol excreted | 12 to 24 h | 12 to 24 h |  |
| O=C(/C=C/c1ccc(O)c(O)c1)O[C@@H]1C[C@](O)(C(=O)O)C[C@@H](O)[C@H]1O [Chlorogenic acid, chlorogenic acid] | 238 ± 67 nmol excreted | np | np | 66.1 ± 23.4 nmol excreted |  |  | Tmax ([1]; 350 mg/kg): 0 to 24 h; Tmax ([1]; 1000 mg/kg): 0 to 12 h |
| COc1ccc(CC(=O)O)cc1O [3-OH-4-OMe-PAA] | np | np | np | np | np | np |  |
| COc1cc(-c2[o+]c3cc(O)cc(O)c3cc2OC2OC(CO)C(O)C(O)C2O)cc(O)c1O (stereo not drawn) [Petunidin Galactoside, petunidin-3-O-galactoside] | 1.73 ± 0.38 nmol excreted | np | np | 0.49 ± 0.23 nmol excreted | 0 to 12 h | 0 to 12 h |  |
| OC[C@H]1O[C@@H](Oc2cc3c(O)cc(O)cc3[o+]c2-c2ccc(O)c(O)c2)[C@H](O)[C@@H](O)[C@@H]1O [Cyanidin Glucoside, cyanidin-3-O-glucoside] | 0.22 ± 0.04 nmol excreted | np | np | 0.11 ± 0.05 nmol excreted | 0 to 12 h | 0 to 24 h |  |
| OC[C@H]1O[C@@H](Oc2cc3c(O)cc(O)cc3[o+]c2-c2cc(O)c(O)c(O)c2)[C@H](O)[C@@H](O)[C@H]1O [Delphinidin Galactoside] | 1.74 ± 0.22 nmol excreted | np | np | 0.98 ± 0.20 nmol excreted | 0 to 12 h | 0 to 12 h |  |
| COc1cc(-c2[o+]c3cc(O)cc(O)c3cc2O[C@@H]2O[C@H](CO)[C@H](O)[C@H](O)[C@H]2O)cc(OC)c1O [Malvidin Galactoside, malvidin-3-O-galactoside] | 14.2 ± 1.3 nmol excreted | np | np | 7.36 ± 2.00 nmol excreted | 0 to 12 h | 0 to 12 h | Time of maximal urinary excretion after dosing [1]: ≤ 12 h |
| O=c1c(O)c(-c2ccc(O)c(O)c2)oc2cc(O)cc(O)c12 [Quercetin, quercetin] | 11.5 ± 4.0 nmol excreted |  | 3.88 ± 1.46 nmol excreted | 10.1 ± 7.4 nmol excreted |  |  | Tmax ([1]; 75 mg/kg): 0 to 12 h; Tmax ([1]; 350 mg/kg): 0 to 12 h; Tmax ([1]; 1000 mg/kg): 0 to 12 h |
| petunidin glucuronide | 3.49 ± 0.46 nmol excreted | np | np | 0.92 ± 0.24 nmol excreted | 0 to 12 h | 0 to 12 h |  |
| delphinidin sulfate | 20.2 ± 2.4 nmol excreted | np | np | 18.2 ± 2.4 nmol excreted | 0 to 24 h | 0 to 24 h |  |
| O=C(O)Cc1ccc(O)cc1 [4-OH-PAA, 4-hydroxyphenylacetic acid] | 0.51 ± 0.16 nmol excreted |  | 0.30 ± 0.12 nmol excreted | 0.84 ± 0.38 nmol excreted |  |  | Tmax ([1]; 75 mg/kg): 0 to 24 h; Tmax ([1]; 350 mg/kg): 0 to 24 h; Tmax ([1]; 1000 mg/kg): 0 to 24 h |
| Caffeic acid sulfate | 9.74 ± 0.78 nmol excreted | np | np | 6.43 ± 4.57 nmol excreted | 0 to 12 h | 0 to 12 h |  |
| COc1cc(-c2[o+]c3cc(O)cc(O)c3cc2O[C@@H]2O[C@H](CO)[C@@H](O)[C@H](O)[C@H]2O)cc(O)c1O [Petunidin Glucoside, petunidin-3-O-glucoside] | 0.94 ± 0.19 nmol excreted | np | np | 0.37 ± 0.14 nmol excreted | 0 to 12 h | 0 to 12 h |  |
| O=C(O[C@@H]1O[C@H](C(=O)O)[C@@H](O)[C@H](O)[C@H]1O)c1ccccc1 [BzA glucuronide] | 0.76 ± 0.17 nmol excreted | np | np | 0.85 ± 0.17 nmol excreted | 12 to 24 h | 12 to 24 h |  |
| OC[C@H]1O[C@@H](Oc2cc3c(O)cc(O)cc3[o+]c2-c2ccc(O)c(O)c2)[C@H](O)[C@@H](O)[C@H]1O [Cyanidin Galactoside] | 0.46 ± 0.09 nmol excreted | np | np | 0.19 ± 0.04 nmol excreted | 0 to 12 h | 0 to 12 h |  |
